The target in one assay is T1, DNA topoisomerase 1 (Homo sapiens, UniProt P11387).
T1 sequence (P11387 whole entry): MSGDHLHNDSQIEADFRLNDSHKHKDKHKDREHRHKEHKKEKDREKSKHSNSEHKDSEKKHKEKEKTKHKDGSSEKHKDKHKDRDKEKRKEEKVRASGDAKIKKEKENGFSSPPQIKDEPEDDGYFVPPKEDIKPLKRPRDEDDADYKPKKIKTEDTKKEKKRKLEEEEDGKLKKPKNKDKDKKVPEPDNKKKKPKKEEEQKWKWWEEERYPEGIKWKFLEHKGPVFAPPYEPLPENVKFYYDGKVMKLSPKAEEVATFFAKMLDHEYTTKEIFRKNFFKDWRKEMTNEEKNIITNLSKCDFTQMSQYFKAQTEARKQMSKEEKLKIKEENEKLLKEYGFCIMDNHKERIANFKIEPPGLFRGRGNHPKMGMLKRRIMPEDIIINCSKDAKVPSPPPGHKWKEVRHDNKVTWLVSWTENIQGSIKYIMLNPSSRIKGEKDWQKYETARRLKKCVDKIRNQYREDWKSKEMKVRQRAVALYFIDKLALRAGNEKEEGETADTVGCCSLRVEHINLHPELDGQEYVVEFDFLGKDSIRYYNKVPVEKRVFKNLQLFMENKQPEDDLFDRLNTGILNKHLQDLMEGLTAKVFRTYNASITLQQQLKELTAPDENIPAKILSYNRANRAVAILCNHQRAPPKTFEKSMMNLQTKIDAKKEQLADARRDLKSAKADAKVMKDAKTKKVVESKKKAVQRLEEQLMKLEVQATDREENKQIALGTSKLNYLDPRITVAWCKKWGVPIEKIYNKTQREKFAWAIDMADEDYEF
The assay is described as follows: Inhibition of human topoisomerase 1-mediated DNA cleavage assessed as accumulation of nicked DNA by ethidium bromide staining based electrophoregram.

The nature of assay [1]: Induction of pHOT1 DNA (unknown origin) cleavage assessed as conversion of supercoiled DNA to linear and nicked form of DNA at 5 to 500 uM after 30 mins by gel electrophoretic mobility assay.
In assay [2] the target is DNA topoisomerase 2-alpha (Homo sapiens) (UniProt P11388). Put plainly: Inhibition of human topoisomerase 2 alpha-mediated DNA cleavage assessed as accumulation of nicked DNA at 0.06 to 10 uM by electrophoregram.
Assay [3] shares this target. The assay is described as follows: Inhibition of human topoisomerase 2 alpha-mediated DNA cleavage assessed as accumulation of nicked DNA at 0.06 to 10 uM by ethidium bromide staining based electrophoregram.
The target is the same in assay [4]. The assay is described as follows: Inhibition of human topoisomerase 2 alpha-mediated DNA cleavage assessed as linear form of plasmid by electrophoregram.
Assay [5] addresses T2, DNA topoisomerase 1 (Homo sapiens) (UniProt P11387).
T2 sequence (whole entry): T1 sequence (P11387 whole entry)
The conditions noted are these: 0.06 to 10 uM.
Description: Inhibition of human topoisomerase 1-mediated DNA cleavage assessed as accumulation of nicked DNA at 0.06 to 10 uM by ethidium bromide staining based electrophoregram

The results in this text go back to ChEMBL document CHEMBL3425460, “Stereoselective synthesis of 11-phenylundeca-5Z,9Z-dienoic acid and investigation of its human topoisomerase I and IIα inhibitory activity” (Bioorg Med Chem Lett, 2015).

Active and inactive are the calls of the source. The rule behind the calls is not given here.

Chain of DNA topoisomerase 2-alpha (Homo sapiens) (P11388 whole entry): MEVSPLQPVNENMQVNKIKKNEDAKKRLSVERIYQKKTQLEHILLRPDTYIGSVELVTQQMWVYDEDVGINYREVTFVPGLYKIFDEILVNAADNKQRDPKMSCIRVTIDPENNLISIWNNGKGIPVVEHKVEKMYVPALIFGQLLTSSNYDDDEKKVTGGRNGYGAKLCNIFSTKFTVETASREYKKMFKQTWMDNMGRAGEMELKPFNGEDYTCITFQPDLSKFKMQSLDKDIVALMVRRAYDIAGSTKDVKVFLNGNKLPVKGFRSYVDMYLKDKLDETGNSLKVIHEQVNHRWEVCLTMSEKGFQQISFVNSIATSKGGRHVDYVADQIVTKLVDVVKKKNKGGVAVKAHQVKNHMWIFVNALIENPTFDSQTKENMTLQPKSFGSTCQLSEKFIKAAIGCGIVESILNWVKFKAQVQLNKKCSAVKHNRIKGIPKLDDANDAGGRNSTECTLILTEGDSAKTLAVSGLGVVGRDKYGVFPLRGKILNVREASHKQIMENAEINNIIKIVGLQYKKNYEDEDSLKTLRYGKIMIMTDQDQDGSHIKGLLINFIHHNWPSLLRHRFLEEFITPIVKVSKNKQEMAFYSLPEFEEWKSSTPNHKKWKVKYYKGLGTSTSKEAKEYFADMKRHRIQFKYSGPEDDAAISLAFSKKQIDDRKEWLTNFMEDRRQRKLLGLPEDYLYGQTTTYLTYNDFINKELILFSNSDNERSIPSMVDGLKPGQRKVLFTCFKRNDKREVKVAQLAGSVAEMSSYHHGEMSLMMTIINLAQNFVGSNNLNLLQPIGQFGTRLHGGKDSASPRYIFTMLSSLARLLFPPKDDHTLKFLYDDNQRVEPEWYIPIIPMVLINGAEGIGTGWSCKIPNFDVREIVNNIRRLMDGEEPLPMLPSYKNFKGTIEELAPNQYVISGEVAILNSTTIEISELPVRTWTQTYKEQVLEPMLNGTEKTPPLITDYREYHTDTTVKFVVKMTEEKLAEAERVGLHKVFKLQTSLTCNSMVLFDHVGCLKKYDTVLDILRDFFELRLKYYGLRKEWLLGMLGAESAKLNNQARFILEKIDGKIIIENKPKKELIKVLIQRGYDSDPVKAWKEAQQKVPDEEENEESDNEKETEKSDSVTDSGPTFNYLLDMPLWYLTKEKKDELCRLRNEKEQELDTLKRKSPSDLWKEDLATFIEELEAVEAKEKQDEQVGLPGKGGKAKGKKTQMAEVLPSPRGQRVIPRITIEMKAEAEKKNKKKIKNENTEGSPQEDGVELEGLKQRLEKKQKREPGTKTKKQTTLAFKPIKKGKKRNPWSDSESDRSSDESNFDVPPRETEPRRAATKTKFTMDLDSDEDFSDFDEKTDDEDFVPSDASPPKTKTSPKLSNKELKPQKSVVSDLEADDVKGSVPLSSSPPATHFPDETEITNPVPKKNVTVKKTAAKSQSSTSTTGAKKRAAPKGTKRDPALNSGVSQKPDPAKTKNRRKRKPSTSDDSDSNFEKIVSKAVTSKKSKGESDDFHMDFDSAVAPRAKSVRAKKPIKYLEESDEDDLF

In the case of `CCCCCCCCCC/C=C\CC/C=C\CCCC(=O)O`, on DNA topoisomerase 1, the concentration for half-maximal inhibition (IC50) was found to be 0.81 µM.
Consider `O=C(O)CCC/C=C\CC/C=C\Cc1ccccc1`, for which the result in assay [1] was Active. Besides, the IC50 on DNA topoisomerase 1 amounted to 0.67 µM. For the same molecule, the inhibition result in assay [2], in assay [3] and in assay [5] was “Active” in each case. Besides, the inhibition entry in assay [4] is “Dose-dependent effect”.
